# Test results as given in US8334260B2, “sFRP and peptide motifs that interact with sFRP and methods of their use” (The United States of America as represented by the …, priority 2001, dated 2012).
# “Also recorded” adds a separate entry of the source. Where no end group is shown, it is not given here.
# B1: Δ3 derivative: sFRP-1 deletion mutant containing all of the Fz CRD and a portion of the C-terminal region (protein)
# chain: MGIGRTEGGRRGAALGVLLALGGASGRGLGSEYDYVSFQSDIGPYQSGRFYTKPPQCVDIPADLRLCHNVGYKKMVLPNLLEHETMAEVKQQASSWVPLLNKNCHAGTQVFLCSLFAPVCLDRPIYPCRWLCEAVRDSCEPVMQFFGFYWPEMLKCDKFPEGDVCIAMTPPNATEASKPQGTTVCPPCDNELKSEAIIEHLCASEFALRMKIKEVKKENGDKKIVPKKKKPLKLGPIKKKDLQAYVEQKLISEEDLNSAVDHHHHHH
# modifications: Fusion protein
# notes: sFRP-1 deletion mutant containing all of the Fz CRD and a portion of the C-terminal region
# B2: OPG: osteoprotegerin, soluble TNF receptor family factor that binds RANKL (protein, UniProt O00300 22-401, looked up)
# Tumor necrosis factor …: ETFPPKYLHYDEETSHQLLCDKCPPGTYLKQHCTAKWKTVCAPCPDHYYTDSWHTSDECLYCSPVCKELQYVKQECNRTHNRVCECKEGRYLEIEFCLKHRSCPPGFGVVQAGTPERNTVCKRCPDGFFSNETSSKAPCRKHTNCSVFGLLLTQKGNATHDNICSGNSESTQKCGIDVTLCEEAFFRFAVPTKFTPNWLSVLVDNLPGTKVNAESVERIKRQHSSQEQTFQLLKLWKHQNKDQDIVKKIIQDIDLCENSVQRHIGHANLTFEQLRSLMESLPGKKVGAEDIEKTIKACKPSDQILKLLSLWRIKNGDQDTLKGLMHALKHSKTYHFPKTVTQSLKKTIRFLHSFTMYKLYQKLFLEMIGNQVQSVKISCL
# B3: Al derivative: sFRP-1 deletion mutant that consists essentially of the Fz CRD (protein)
# chain: MGIGRTEGGRRGAALGVLLALGGASGRGLGSEYDYVSFQSDIGPYQSGRFYTKPPQCVDIPADLRLCHNVGYKKMVLPNLLEHETMAEVKQQASSWVPLLNKNCHAGTQVFLCSLFAPVCLDRPIYPCRWLCEAVRDSCEPVMQFFGFYWPEMLKCDKFPEGDVCIAMTPQAYVEQKLISEEDLNSAVDHHHHHH
# modifications: Fusion protein
# notes: sFRP-1 deletion mutant that consists essentially of the Fz CRD
# B4: NHD: netrin homology domain of sFRP-1 (protein, listed as Homo sapiens)
# chain: CIAMTPPNATEASKPQGTTVCPPCDNELKSEAIIEHLCASEFALRMKIKEVKKENGDKKIVPKKKKPLKLGPIKKKDLKKLVLYLKNGADCPCHQLDNLSHHFLIMGRKVKSQYLLTAIHKWDKKNKEFKNFMKKMKNHEC
# How the values were obtained:
# sFRP-1 [1] = assay: ELISA of peptide/alkaline phosphatase fusion proteins binding to sFRP-1; parameters: species or system human; settings: bacterial broths, sFRP-1-coated versus BSA-coated wells, pNPP at 405 nm
# Protocol: Synthetic oligonucleotides encoding peptides of interest were ligated into the bacterial alkaline phosphatase fusion vector, pMY101, which had been digested with Sal I and Xho I (Yamabhai and Kay, Anal Biochem. 247:143-151, 1997). All recombinants were confirmed by DNA sequence analysis. Bacteria (E. coli, strain DH5αF′) transformed with the peptide/AP constructs were grown in Luria broth containing ampicillin (50 μg/mL) to an optical density of 0.5 (at 600 nm), treated with 1 mM isopropyl-β-D-thiogalactopyranoside and then incubated overnight at 37° C. Conditioned medium containing peptide/AP chimera was recovered by centrifugation at 7000 g for 15 minutes. Chimeric proteins in conditioned medium were stable when stored for a few weeks at 4° C. or for several months when stored at −80° C.
# ELISA experiments were generally performed as previously described (Uren et al., J. Biol. Chem. 275:4374-4382, 2000), with modifications depending on the sFRP binding partner to be tested. Typically, wells were coated with 0.5 or 1 μg of sFRP-1, blocked with BSA (0.2%, 1%, or 4%) and then incubated with putative binding partner overnight at room temperature. When investigating the binding of peptide/AP chimeras, after aspiration of bacterial broths, wells were washed and incubated with p-nitrophenolphosphate (pNPP). Color development was determined at 405 nm with an ELISA reader. […] Following overnight incubation at room temperature, RANKL solutions were aspirated and bound RANKL was detected by sequential incubations with primary antibody to RANKL, secondary antibody coupled with AP and pNPP. […]
# A set of peptide-alkaline phosphatase fusion proteins containing the peptide motifs (SEQ ID NOS: 14, 11, and 27) were generated. […] This qualitative difference between A-C2 (SEQ ID NO: 14), A-E4 (SEQ ID NO: 1), and B-B9 (SEQ ID NO: 27) derivatives was consistent with a quantitative difference noted during the ELISA screening of the respective phage. […]
# [2] = test system: co-cultures of primary osteoblasts and adult spleen cells; assay: Osteoclastogenesis co-culture of primary osteoblasts and adult spleen cells (TRAP+ cells); format: cell-based, mouse; settings: for effect on TRAP+ multinucleated cells (osteoclast formation): 5 μg/mL with optimal doses of vitamin D3 (10^-8 M) and PGE2 (10^-7 M)
# Protocol: Osteoblastic cells were prepared from the calvaria of newborn mice by digestion with 0.1% collagenase (Worthington Biochemical Co., Freefold, […]) and 0.2% dispase (Godo Shusei, Tokyo, Japan). […] Exp. Med. 182: 1461-1468, 1995). Osteoblastic cells were co-cultured with bone marrow or spleen cells as described previously (Udagawa et al., J. Exp. Med. 182: 1461-1468, 1995). In short, primary osteoblastic cells (2×10^4/well) and nucleated spleen cells (1×10^6/well) or marrow cells (5×10^5/well) were co-cultured in 48-well plates (Corning Glass Inc., Corning, N.Y.) with 0.4 mL of α-MEM (GIBCO/BRL, Grand Island, N.Y.) containing 10% fetal bovine serum (Cytosystems, Castle Hill, NSW, Australia) in the presence of test chemicals. Cultures were incubated in quadruplicate and cells were replenished on day 3 with fresh medium. Osteoclast formation was evaluated after culturing for 6-7 days. Adherent cells were fixed and stained for tartrate-resistant acid phosphatase (TRAP), and the number of TRAP-positive osteoclasts was scored as described (Udagawa et al., J. Exp. Med. 182: 1461-1468, 1995). For TRAP staining, adherent cells were fixed with 4% formaldehyde in PBS for 3 minutes. After treatment with ethanol-acetone (50/50, vol/vol) for 1 minute, the well surface was air dried and incubated for 10 minutes at room temperature in an acetate buffer (0.1 M sodium acetate, pH 5.0) containing 0.01% naphthol AS-MX phosphate (Sigma) as a substrate and 0.03% red violet LB salt (Sigma) as a stain for the reaction product in the presence of 50 mM sodium tartrate. TRAP-positive cells appeared dark red, and those with three or more nuclei were scored as multinucleated and considered as osteoclasts. Validation of osteoclast formation was achieved using the specific marker of calcitonin receptor (CTR) expression and bone resorption. CTR expression was determined either by autoradiography with ^125I-salmon calcitonin or by immunohistochemical localization using an array of antibodies we have developed as described by Quinn et al., Bone 25:1-8, 1999.
# sFRP-1 [3] = assay: Competition ELISA: soluble peptides against peptide/AP chimera binding to sFRP-1; parameters: species or system human; settings: for inhibition of A-D9/AP chimera binding to sFRP-1: soluble peptide; for inhibition of A-C2/alkaline phosphatase fusion protein binding to sFRP-1: soluble peptide preincubated 30 min with chimera
# Protocol: (§1) ELISA experiments were generally performed as previously described (Uren et al., J. Biol. Chem. 275:4374-4382, 2000), with modifications depending on the sFRP binding partner to be tested. Typically, wells were coated with 0.5 or 1 μg of sFRP-1, blocked with BSA (0.2%, 1%, or 4%) and then incubated with putative binding partner overnight at room temperature. When investigating the binding of peptide/AP chimeras, after aspiration of bacterial broths, wells were washed and incubated with p-nitrophenolphosphate (pNPP). Color development was determined at 405 nm with an ELISA reader. For competition experiments, soluble peptides were preincubated with peptide/AP chimeras in bacterial broth for 30 min at room temperature prior to transfer into ELISA wells coated with sFRP-1 or BSA. When testing RANKL binding to sFRP-1, serial dilutions of soluble RANKL were assayed in replicate. Following overnight incubation at room temperature, RANKL solutions were aspirated and bound RANKL was detected by sequential incubations with primary antibody to RANKL, secondary antibody coupled with AP and pNPP. Similar experimental designs were employed when other TNFα family members were examined for binding to sFRPs, and when sFRP-1 derivatives or sFRP-2 were the binding targets for RANKL.
# adult mouse spleen cells = assay: RANKL and M-CSF induced osteoclast formation from adult mouse spleen cells; format: cell-based
# Protocol: (§2) In some instances, experiments were performed either with adult mouse spleen cells or with RAW264.7 cells treated with M-CSF and RANKL as described in Quinn et al., Endocrinology 139:4424-4427, 1998. Where indicated, these assays were conducted in the presence or absence of splenic T cells. T cell fractions were prepared as described in Horwood et al., Journal of Clinical Investigation 101:595-603, 1998.
# RAW264.7 cells [4] = assay: RANKL-induced osteoclast formation in RAW264.7 cells; format: cell-based; settings: RANKL 50 ng/mL, T cells added; 5, 1 and 0.5 μg/mL
# Protocol: as §2
# (§3) The effect of bacterially expressed CRD was assessed in three different cell culture models of osteoclast formation. These were: (1) bone marrow cells+RANKL+M-CSF, (2) the macrophage/monocyte cell line RAW264.7+RANKL, and (3) RAW264.7+TNFα+TGFβ (Horwood et al., Journal of Immunology 166:4915-4921, 2001; Quinn et al., Journal of Bone and Mineral Research. 16, 1787-1794, 2001).
# [5] = test system: AC2/alkaline phosphatase chimera; assay: ELISA of sFRP-1 deletion mutants binding to AC2/alkaline phosphatase chimera; settings: sFRP-1 deletion mutants coated on ELISA wells
# Protocol: as §1, with “When testing RANKL binding to sFRP-1, serial dilutions of soluble RANKL were assayed in replicate.” left out, “Similar experimental designs were employed when other TNFα family members were examined for binding to sFRPs, and when sFRP-1 derivatives or sFRP-2 were the binding targets for RANKL.” left out
# ELISA experiments were performed essentially as described above with a series of sFRP-1 deletion mutants (in Uren et al., J. Biol. Chem., 275: 4374-4382, 2000) to determine what region(s) of the protein were required for binding to the AC2/alkaline phosphatase chimera. […] Little binding was detected with derivatives that contained the CRD alone or the C-terminal region alone.
# RAW264.7 cells [6] = assay: RANKL-independent (TNFα-dependent) osteoclast formation in RAW264.7+TNFα+TGFβ; format: cell-based; settings: present during the first three days of culture
# Protocol: The effect of sFRP-1 was assessed upon a RANKL-independent method of osteoclast formation using the monocyte/macrophage cell line RAW264.7 (Quinn et al., Journal of Bone and Mineral Research. 16, 1787-1794, 2001) and was compared with that of osteoprotegerin (FIG. 14).
# as §3
# RANKL = biological target: T1, RANKL (Homo sapiens, UniProt O14788); assay: ELISA of soluble RANKL binding to wells coated with sFRP-1, sFRP-1 derivatives or sFRP-2; settings: ELISA, coated wells versus BSA
# T1 construct: For ELISA assays, recombinant soluble RANKL and TRAIL, and antibodies directed against these proteins were obtained from PeproTech; purchased PeproTech (Rocky Hill, N.J.)
# T1 sequence (O14788 140-317): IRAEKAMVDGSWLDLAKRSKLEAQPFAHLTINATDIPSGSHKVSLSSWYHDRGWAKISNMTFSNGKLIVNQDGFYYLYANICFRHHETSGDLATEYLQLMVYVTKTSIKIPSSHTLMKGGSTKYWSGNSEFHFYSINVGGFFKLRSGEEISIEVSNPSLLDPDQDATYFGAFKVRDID
# Protocol: as §1
# The possibility that sFRP-1 (SEQ ID NO: 3) and RANKL interact directly with each other was tested using an ELISA assay. […] RANKL was then incubated in these wells and in adjacent wells that had only been treated with BSA.
molecule,measurement,setting,value
A-C2 (SEQ ID NO: 14)/alkaline phosphatase fusion protein: A-C2 peptide fused to bacterial alkaline phosphatase (QGTLVDGRWLQL; also: fused to bacterial alkaline phosphatase),specific binding of peptide/alkaline phosphatase fusion protein to sFRP-1,sFRP-1 [1],"strong, highly specific binding"
A-D9/AP chimera: A-D9 peptide fused to alkaline phosphatase (WECAMYDGRCLT; cysteine pairing not given here; also: fused to alkaline phosphatase),specific binding of peptide/alkaline phosphatase fusion protein to sFRP-1,sFRP-1 [1],bound specifically
"Alkaline phosphatase: alkaline phosphatase itself, control for the fusion proteins [reference compound]",specific binding of peptide/alkaline phosphatase fusion protein to sFRP-1,sFRP-1 [1],no preferential binding
QGTLVDGRWLQL [A-C2],effect on TRAP+ multinucleated cells (osteoclast formation),[2],ten-fold increase; also recorded: markedly stimulated
same,time window of the effect on osteoclast formation,[2]; peptide present for different periods of the culture,only had an effect on osteoclast formation when it was present during day 0 to day 3
same,inhibition of A-D9/AP chimera binding to sFRP-1,sFRP-1 [3],could inhibit binding
same,inhibition of A-C2/alkaline phosphatase fusion protein binding to sFRP-1,sFRP-1 [3],dose-dependent inhibition
same,"effect on osteoclast formation, T cells removed",adult mouse spleen cells; T cells removed from adult spleen cells with antibody-coupled magnetic beads,no additional response
same,effect on osteoclast production,"adult mouse spleen cells; peptide present during days 0-3, RANKL 50 ng/mL and M-CSF 25 ng/mL",caused an increase in osteoclast production
same,stimulation of TRAP+ multinucleated cell differentiation,RAW264.7 cells [4],dose-dependent stimulation
WECAMYDGRCLT (Peptide that binds sFRP) [A-D9],inhibition of A-D9/AP chimera binding to sFRP-1,sFRP-1 [3],blocked in a dose-dependent manner
same,inhibition of A-C2/alkaline phosphatase fusion protein binding to sFRP-1,sFRP-1 [3],inhibited binding
B1,binding to the AC2/alkaline phosphatase chimera,[5],Optimal binding
B2,effect on TNFα-dependent osteoclast formation,RAW264.7 cells [6],no effect
B3,binding to RANKL,RANKL,retained good binding
B4,effect on TRAP+ multinucleated cells (osteoclast formation),[2],not further enhanced
